This note sets out measurements from patent publication US5594012A, “Amino acid derivatives and anti-active oxygen agents” (Ajinomoto Co., Inc., priority 1992, dated 1997).

Structures can show the parent of a compound that is named as a salt.

Series [1] concerns lipid peroxidation in murine brain homogenate. The experiment in a line: Inhibitory effects on metal ion-induced lipid peroxidation (murine brain homogenate). The format is biochemical, murine (C57 black mouse). The following applies: 1 mM test compound; 100 μM ammonium iron (II) sulphate; 37° C., 30 minutes; pH 7.2 to 7.8. The method, then:
Test for Inhibitory Effects on Metal Ion-induced Lipid Peroxidation
(§1) The test was carried out according to the method described in Method in Enzymol., Vol. 52, page 302, 1978. A C57 black mouse was killed by cervical dislocation, and the whole brain extracted from the dissected head was washed with 20 mM phosphate buffer (hereinafter referred to as "PBS-2"). Then, the brain was added with PBS-2 in an amount of 19 times its wet weight, and the mixture was disrupted and homogenized with a homogenizer "Polytron" (manufactured by Kinematica). The thus prepared 5% solution of the murine brain homogenate in PBS-2 was diluted 1:5 with fresh PBS-2. To 800 μl of the resulting 1% solution of the murine brain homogenate in PBS-2 (protein content: 0.8 to 1.0 mg/ml) were successively added 100 μl of a PBS-2 solution of each of the test compounds shown in Table 7 below and 100 μl of an aqueous solution of ammonium iron (II) sulphate. The final concentration of the test compounds and ammonium iron (II) sulphate were adjusted to be 1 mM and 100 μM, respectively. If test compounds were not soluble in PBS-2 alone, an aqueous sodium hydroxide solution or DMSO was added. The pH of the solution was adjusted to 7.2 to 7.8.
The solution after heated at 37° C. for 30 minutes was added with 2.0 ml of an aqueous solution of thiobarbituric acid/trichloroacetic acid/hydrochloric acid, and the mixture was heated in a boiling water bath for 15 minutes. After ice-cooling, the solution was extracted with 1.0 ml of 1-butanol to prepare a sample for determining the peroxide lipid in the same way as described in Test Example 1.
(§2) [formula] A1 : Absorbance when a test compound was added. A2 : Absorbance when a test compound was not added.
A3 : Absorbance when a test compound was not added and heating at 37° C. for 30 minutes was not carried out.

Series [2] concerns hydroxyl radical. The experiment in a line: Inhibitory effects on hydroxyl radical formation (1) (xanthine/xanthine oxidase, deoxyribose). The note with it: 360 μM test compound; 36 μM ammonium iron (III) sulphate; xanthine oxidase 0.7 unit/ml; 37° C., 15 minutes; pH 7.4 to 7.8. Type of series: biochemical. The method, then:
Test for Inhibitory Effects on Hydroxyl Radical Formation (1)
The test was carried out in accordance with the method described in FEBS Letters, Vol. 128, page 347, 1981. Namely, to 1.1 ml of a solution of 54 mM sodium chloride in 9 mM phosphate buffer (hereinafter referred to as "PBS-I") were successively added 140 μl of a solution of each of the test compounds shown in Table 6 below in PBS-1, […] of a 1 mM solution of ammonium iron (III) sulphate in hydrochloric acid, 140 μl of a solution of xanthine (manufactured by Tokyo Kasei Co.) in PBS-1, 14 μl a solution of deoxyribose (Sigma) in PBS-1 and xanthine oxidase (Sigma). The final concentrations of the test compounds, ammonium iron (III) sulphate, xanthine, deoxyribose and xanthine oxidase were adjusted to be 360 μM, 36 μM, 70 μM, 700 μM and 0.7 unit/ml, respectively. If test compounds were not soluble in PBS-1 alone, aqueous sodium hydroxide solution or DMSO was added. The pH of the solution was adjusted to 7.4 to 7.8.
. The percent inhibition of the hydroxyl radical was calculated from the following equation (2) and the results are shown in Table 6. [formula] F1 : Intensity of fluorescence when a test compound was added. F2 : Intensity of fluorescence when a test compound was added but deoxyribose was not added.
F3 : Intensity of fluorescence when a test compound was not added.
F4 : Intensity of fluorescence when neither test compound nor deoxyribose was added.

Series [3] deals with lipid peroxidation in murine brain homogenate. The experiment in a line: Inhibitory effects on lipid peroxidation (murine brain homogenate). The following applies: 30 μM test compound; no added iron; 37° C., 60 minutes; pH 7.2 to 7.8. The format is biochemical, murine (C57 black mouse). The method, then:
as §1
Test for Inhibitory Effects on Lipid Peroxidation
To 900 μl of a 5% solution of the murine brain homogenate in PBS-2 prepared in the same way as described in Test Example 3 was added 100 μl of a PBS-2 solution of each of the test compounds shown in Table 8 below. The final concentration of the test compounds was adjusted to be 30 μM. If test compounds were not soluble in PBS-2 alone, an aqueous solution of sodium hydroxide or DMSO was added. The pH of the solution was adjusted to 7.2 to 7.8.
The solution after heated at 37° C. for 60 minutes was added with 1.0 ml of an aqeuous solution of thiobarbituric acid/trichloroacetic acid/hydrochloric acid, and the mixture was heated in a boiling water bath for 15 minutes. After ice-cooling, the solution was extracted with 2.0 ml of 1-butanol to prepare a sample for determining the lipid peroxide in the same way as described in Test Example 1. […] [formula] A4 : Absorbance when a test compound was added. A5 : Absorbance when a test compound was not added.
A6 : Abosrbance when a test compound was not added and heating at 37° C. for […] was not carried out.

The test system of series [4] is lipid peroxidation in homogenate of murine swiss 3T3 cells. Briefly: Inhibitory effects on UV-induced lipid peroxidation (homogenate of murine swiss 3T3 cells). The following applies: 1 mM test compound; UVB 0.4 mW/cm^2, 90 min; pH 7.2 to 7.8; TBA, 535 nm. The format is biochemical. As to the method:
Test for Inhibitory Effects on UV-induced Lipid Peroxidation
The test was carried out on the basis of the methods described in Biochim. Biophys. […] Namely, 12 μl of an aqueous sodium hydroxide solution of each of the test compounds shown in Table 5 below was added to 1.2 ml of a homogenate of murine swiss 3T3 cells (i.e. a kind of murine skin cells) prepared by a conventional method in 20 mM phosphate buffer (protein content: 1.5 to 1.8 mg/ml). The final concentration of the test compounds was adjusted to be 1 mM and the pH of the solution was adjusted to 7.2 to 7.8. If test compounds were not soluble in an aqueous sodium hydroxide solution, they were dissolved in N,N-dimethyl sulfoxide (DMSO).
This solution (1.1 ml) was irradiated with UV rays (0.4 mW/cm^2, 90 min.) using a UVB lamp "EB-280C/J" (manufactured by Spectronics). To an aliquot (1.0 ml) of this solution were successively added 0.2 ml of an aqueous solution of sodium dodecyl sulfate and 1.0 ml of an aqueous solution of thiobarbituric acid/trichloroacetic acid/hydrochloric acid, and the mixed solution was heated in a boiling water bath for 15 minutes. After ice-cooling, the solution was extracted with 1.0 ml of 1-butanol to prepare a sample for determining peroxide lipid as absorbance at a wavelength of 535 nm using a spectrophotometer "Model 320" (manufactured by Hitachi).
as §2
A3 : Absorbance when a test compound was not added and UV rays were not irradiated.

The test system of series [5] is hydroxyl radical. The experiment in a line: Inhibitory effects on hydroxyl radical formation (2) (iron (II)/hydrogen peroxide, DMPO, ESR). Type of series: biochemical. The note with it: 306 μM test compound; 306 μM iron (II) sulphate; 75 mM DMPO; 306 μM hydrogen peroxide; ESR within 40 seconds. As to the method: Test for Inhibitory Effects on Hydroxyl Radical Formation (2)
To 75 μl of a solution of each of the test compounds shown in Table 9 below in 0.1M phosphate buffer (hereinafter referred to as "PBS-3") were successively added 75 μl of an aqueous solution of iron (II) sulphate, 20 μl of an aqueous solution of 5,5-dimethyl-1-pyrroline-N-oxide "DMPO" (manufactured by Dojin Chemical) and 75 μl of an aqueous solution of hydrogen peroxide. […] If test compounds were not soluble in PBS-3 alone, an aqueous sodium hydroxide solution or N,N-dimethyl formamide was added.
This solution was subjected to determination for the hydroxy radical immediately (within 40 seconds), using an electron spin resonance (ESR) meter "JES-FR80S" (manufactured by Nippon Denshi).
[formula] E1 : Signal magnitude when a test compound was added. E2 : Signal magnitude when a test compound was not added.

The next series can be described thus: UV absorptive activities. Type of series: physicochemical. The note with it: 100 μM in ethanol (water or DMSO added if not soluble); for Maximum molar extinction coefficient: UVA and UVB regions. The method, then:
Test for UV Absorptive Activities
A solution of each of the test compounds shown in Table 10 below in ethanol was prepared for the final concentration to be 100 μM. If test compounds were not soluble in ethanol alone, water or DMSO was added.
The absorption spectrum of each sample was determined using a spectrophotometer "Model 320" (manufactured by Hitachi).

In the case of `O=C(O)[C@H](Cc1c[nH]cn1)NCc1ccccc1O` [Synthesis Example 1, N-(2-hydroxybenzyl)-L-histidine], the “% Inhibition of metal ion-induced lipid peroxidation” value in series [1] is 26%. Also, in the series with hydroxyl radical [2], the “% Inhibition of hydroxyl radical” value was 29%. Also, the “% Inhibition of lipid peroxidation” value in series [3] is on record as 53%. The “% Inhibition of UV-induced lipid peroxidation” value in series [4] was determined as 40%. In addition, the “% Inhibition of hydroxy radicals” value in the series on hydroxyl radical [5] turned out to be 27%.

As for `O=C(O)C(CO)NCc1ccccc1O` (stereo not shown) [Synthesis Example 2], in series [1], the “% Inhibition of metal ion-induced lipid peroxidation” value is recorded as 41%. The “% Inhibition of hydroxyl radical” value with hydroxyl radical [2] is 29%. For the same compound, the “% Inhibition of lipid peroxidation” value in series [3] is listed as 26%. The “% Inhibition of UV-induced lipid peroxidation” value in series [4] amounted to 59%. Also, the “% Inhibition of hydroxy radicals” value in the series with hydroxyl radical [5] was 44%.

Turning to `Cc1ncc(CO)c(CNC(CO)C(=O)O)c1O` (stereo not shown) [Synthesis Example 18], the “% Inhibition of metal ion-induced lipid peroxidation” value in series [1] turned out to be 26%. For the same compound, the “% Inhibition of hydroxyl radical” value in the series on hydroxyl radical [2] is 42%. In series [3], the “% Inhibition of lipid peroxidation” value is given as 44%. Also, in the series “UV absorptive activities”, the “Wavelength (nm) of maximum absorption” value is recorded as 290 nm and the “Maximum molar extinction coefficient” value is listed as 3,500. For the same compound, the “% Inhibition of hydroxy radicals” value with hydroxyl radical [5] amounted to 43%.

As to `O=C(O)C(CO)N=Cc1c(O)ccc2ccccc12` (stereo not shown) [Synthesis Example 28], in series [1], the “% Inhibition of metal ion-induced lipid peroxidation” value stood at 80%. In addition, in the series on hydroxyl radical [2], the “% Inhibition of hydroxyl radical” value came out at 19%. Further, the “% Inhibition of lipid peroxidation” value in series [3] is given as 70%. In series [4], the “% Inhibition of UV-induced lipid peroxidation” value is 20%. In addition, in “UV absorptive activities”, the “Wavelength (nm) of maximum absorption” value was 307 nm and the “Maximum molar extinction coefficient” value was 10,000. The “% Inhibition of hydroxy radicals” value in the series with hydroxyl radical [5] is on record as 56%.

For `Cc1ncc(CO)c(C=N[C@@H](Cc2c[nH]cn2)C(=O)O)c1O` [Synthesis Example 68, N-pyridoxilidene-L-histidine-sodium salt], in series [1], the “% Inhibition of metal ion-induced lipid peroxidation” value came to 15%. The “% Inhibition of hydroxyl radical” value in the series on hydroxyl radical [2] is 15%. Also, in the series “UV absorptive activities”, the “Wavelength (nm) of maximum absorption” value is listed as 291 nm and the “Maximum molar extinction coefficient” value is reported as 4,300. Besides, in the series on hydroxyl radical [5], the “% Inhibition of hydroxy radicals” value is recorded as 10%.
